pIC50: −log10 of the molar value. In brackets after ≈: the same amount, converted by molar mass. Like-named read-outs stand apart in the source and are kept apart here.
What was measured:
[1] = target: T1, full-length beta-Catenin (Uniprot ID P35222) (Homo sapiens, UniProt P35222); experiment: Fluorescence polarization IC50 (beta-catenin / 5FAM-TCF4 10-53 competition); assay type: binding
T1 construct: 10 nM full-length beta-Catenin (Uniprot ID P35222)
T1 sequence (P35222 1-781): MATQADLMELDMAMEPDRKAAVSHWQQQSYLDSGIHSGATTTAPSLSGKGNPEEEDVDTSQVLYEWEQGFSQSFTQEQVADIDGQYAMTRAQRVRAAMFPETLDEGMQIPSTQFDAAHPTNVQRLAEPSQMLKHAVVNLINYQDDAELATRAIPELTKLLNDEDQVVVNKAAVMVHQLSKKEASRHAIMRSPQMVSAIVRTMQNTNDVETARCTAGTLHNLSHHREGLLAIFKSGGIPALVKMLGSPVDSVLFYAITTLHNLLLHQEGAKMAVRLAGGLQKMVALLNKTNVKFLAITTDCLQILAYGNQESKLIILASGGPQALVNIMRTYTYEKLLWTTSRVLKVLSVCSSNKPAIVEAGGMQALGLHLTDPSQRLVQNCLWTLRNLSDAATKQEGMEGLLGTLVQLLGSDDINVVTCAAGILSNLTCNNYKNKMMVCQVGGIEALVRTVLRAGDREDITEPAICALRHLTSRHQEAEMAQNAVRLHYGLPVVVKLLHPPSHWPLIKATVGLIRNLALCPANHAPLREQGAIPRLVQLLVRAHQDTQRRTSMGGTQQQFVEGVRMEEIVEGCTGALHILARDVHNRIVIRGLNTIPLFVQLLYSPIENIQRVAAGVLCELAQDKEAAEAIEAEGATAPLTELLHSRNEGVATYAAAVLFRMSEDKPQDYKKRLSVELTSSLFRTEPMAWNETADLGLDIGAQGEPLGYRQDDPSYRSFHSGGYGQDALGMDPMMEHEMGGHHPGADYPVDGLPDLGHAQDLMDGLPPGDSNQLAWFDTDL

CHI Log D procedure = assay type: physicochemical; details: for chromatographic logD / logD: pH 7.4, CHI Log D; for CHI Log D: pH 7.4
Solubility in PBS = assay type: physicochemical
How it was run: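 HPLC quantitation of peptide remaining in the PBS supernatant after ultracentrifugation, referenced to a 50 μM solution in DMSO.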

[2] = Table E2-1, read-out: beta-Catenin FP IC50
[3] = fluorescence polarization, read-out: beta-Catenin FP IC50

| SMILES | pIC50 [1, 2] | chromatographic logD (CHI Log D procedure) | Solubility (Solubility in PBS) [µM] | further results |
| --- | --- | --- | --- | --- |
| CC(=O)N1CCC[C@]12CC=CCCCC1(CCCC=CCCCCCC[C@@](C)(C(=O)N[C@@H](Cc3ccccc3)C(=O)N[C@@H](Cc3c[nH]c4ccccc34)C(=O)N[C@@H](CCC(N)=O)C(N)=O)NC(=O)[C@H](C(C)C)NC(=O)C(Cc3cncn3C)NC(=O)[C@H](C)NC(=O)[C@H](C)NC(=O)[C@H](CC(=O)O)NC(=O)[C@H](CC(=O)O)NC1=O)NC(=O)[C@H](C)NC(=O)[C@H](CC(=O)O)NC2=O (single isomer, unassigned) [I-331, Ac-PL3-Asp-Ala-B5-Asp-Asp-Ala-Ala-3meH-Val-S8-Phe-Trp-Gln-NH2] | 5.30 | 2.02 | – | solubility at 15 min (Solubility in PBS; Solubility (uM)): 41 µM (≈ 73.2 µg/mL) |
| CC(=O)N1CCC[C@]12CC=CCCCC1(CCCC=CCCCCCC[C@@](C)(C(=O)N[C@@H](Cc3ccccc3)C(=O)N[C@@H](Cc3csc4ccccc34)C(=O)NC(Cc3cncn3C)C(N)=O)NC(=O)[C@H](CC(N)=O)NC(=O)[C@H](Cc3ccccc3)NC(=O)[C@H](C)NC(=O)[C@H](C)NC(=O)[C@H](CCC(=O)O)NC(=O)[C@H](CC(=O)O)NC1=O)NC(=O)[C@H](C)NC(=O)[C@H](CC(=O)O)NC2=O (single isomer, unassigned) [I-480, Ac-PL3-Asp-Ala-B5-Asp-Glu-Ala-Ala-Phe-Asn-S8-Phe-BztA-3MeH-NH2] | – | 2.1 | – | pIC50 [1, 3]: 6.75; solubility at 15 min (Solubility in PBS; Solubility (uM)): 36 µM (≈ 66.6 µg/mL) |
| CC(=O)N1CCC[C@]12CC=CCCCC1(CCCC=CCCCCCC[C@@](C)(C(=O)N[C@@H](Cc3ccccc3)C(=O)N[C@@H](Cc3csc4ccccc34)C(=O)NC(Cc3cncn3C)C(N)=O)NC(=O)[C@H](CC(N)=O)NC(=O)[C@H](Cc3ccccc3)NC(=O)[C@H](C)NC(=O)[C@H](C)NC(=O)[C@H](CCC(=O)O)NC(=O)[C@H](CC(=O)O)NC1=O)NC(=O)[C@H](C)NC(=O)[C@H](CC(=O)O)NC2=O (single isomer, unassigned) [I-481, Ac-PL3-Asp-Ala-B5-Asp-Glu-Ala-Ala-Phe-Asn-S8-Phe-BztA-3MeH-NH2] | – | – | – | pIC50 [1, 3]: 7.38; CHI Log D (CHI Log D procedure): 2.133; Solubility (Solubility in PBS; 15 min): 30 µM (≈ 55.5 µg/mL) |
| CC(=O)N1CCC[C@]12CC=CCCCC1(CCCC=CCCCCC[C@@](C)(C(=O)N[C@@H](Cc3ccccc3)C(=O)N[C@@H](Cc3c[nH]c4ccccc34)C(=O)N[C@@H](CCC(N)=O)C(N)=O)NC(=O)[C@H](C(C)C)NC(=O)[C@H](Cc3ccccc3)NC(=O)[C@H](C)NC(=O)[C@H](C)NC(=O)[C@H](CCC(=O)O)NC(=O)[C@H](CC(=O)O)NC1=O)NC(=O)[C@H](C)NC(=O)[C@H](CC(=O)O)NC2=O (stereo partly drawn) [I-132, Ac-PL3-Asp-Ala-B5-Asp-Glu-Ala-Ala-Phe-Val-S7-Phe-Trp-Gln-NH2] | 5.30 | 1.69 | – | Solubility (Solubility in PBS; Solubility (uM)): 49 µM (≈ 87.3 µg/mL) |
| CC(=O)N1CCC[C@]12CC=CCCCC1(CCCC=CCCCCCC[C@@](C)(C(=O)N[C@@H](Cc3ccccc3)C(=O)N[C@@H](Cc3ccc4ccccc4c3)C(=O)N[C@@H](CCC(N)=O)C(N)=O)NC(=O)[C@H](C(C)C)NC(=O)[C@H](Cc3ccccc3)NC(=O)[C@H](C)NC(=O)[C@H](C)NC(=O)[C@H](CCC(=O)O)NC(=O)[C@H](CC(=O)O)NC1=O)NC(=O)[C@H](C)NC(=O)[C@H](CC(=O)O)NC2=O (stereo partly drawn) [I-140, Ac-PL3-Asp-Ala-B5-Asp-Glu-Ala-Ala-Phe-Val-S8-Phe-2NapA-Gln-NH2] | 5.64 | 2.19 | – | Solubility (Solubility in PBS; Solubility (uM)): 48 µM (≈ 86.7 µg/mL) |
| CC(=O)N1CCC[C@]12CC=CCCCC1(CCCC=CCCCCCC[C@@](C)(C(=O)N[C@@H](Cc3ccccc3)C(=O)N[C@@H](Cc3c[nH]c4ccccc34)C(=O)N[C@@H](CCC(N)=O)C(N)=O)NC(=O)[C@H](C(C)C)NC(=O)[C@H](Cc3cccc(F)c3)NC(=O)[C@H](C)NC(=O)[C@H](C)NC(=O)[C@H](CC(=O)O)NC(=O)[C@H](CC(=O)O)NC1=O)NC(=O)[C@H](C)NC(=O)[C@H](CC(=O)O)NC2=O (stereo partly drawn) [I-265, Ac-PL3-Asp-Ala-B5-Asp-Asp-Ala-Ala-3FF-Val-S8-Phe-Trp-Gln-NH2] | 5.42 | – | 36 (≈ 64.8 µg/mL) | pIC50 ([1]; fluorescence polarization, beta-catenin, read-out: FP EC50): 5.42; CHI Log D (CHI Log D procedure): 2.032 |
| CC(=O)N1CCC[C@]12CC=CCCCC1(CCCC=CCCCCCC[C@@](C)(C(=O)N[C@@H](Cc3ccccc3)C(=O)N[C@@H](Cc3c[nH]c4ccccc34)C(=O)N[C@@H](CCC(N)=O)C(N)=O)NC(=O)[C@H](C(C)C)NC(=O)[C@H](Cc3ccc(F)c(F)c3)NC(=O)[C@H](C)NC(=O)[C@H](C)NC(=O)[C@H](CC(=O)O)NC(=O)[C@H](CC(=O)O)NC1=O)NC(=O)[C@H](C)NC(=O)[C@H](CC(=O)O)NC2=O (stereo partly drawn) [I-267, Ac-PL3-Asp-Ala-B5-Asp-Asp-Ala-Ala-34FF-Val-S8-Phe-Trp-Gln-NH2] | 5.30 | 2.05 | – | Solubility (Solubility in PBS; Solubility (uM)): 37 µM (≈ 67.2 µg/mL) |
| CC(=O)N1CCC[C@]12CC=CCCCC1(CCCC=CCCCCCC[C@@](C)(C(=O)N[C@@H](Cc3ccccc3)C(=O)N[C@@H](Cc3c[nH]c4ccccc34)C(=O)N[C@@H](CCC(N)=O)C(N)=O)NC(=O)[C@H](C(C)C)NC(=O)[C@H](Cc3ccccc3)NC(=O)[C@H](C)NC(=O)[C@H](C)NC(=O)[C@H](Cc3cccnc3)NC(=O)[C@H](CC(=O)O)NC1=O)NC(=O)[C@H](C)NC(=O)[C@H](CC(=O)O)NC2=O (stereo partly drawn) [I-271, Ac-PL3-Asp-Ala-B5-Asp-3PyrA-Ala-Ala-Phe-Val-S8-Phe-Trp-Gln-NH2] | 5.30 | 2.44 | 10 (≈ 18.1 µg/mL) | – |
| CC(=O)N1CCC[C@]12CC=CCCCC1(CCCC=CCCCCCC[C@@](C)(C(=O)N[C@@H](Cc3ccsc3)C(=O)N[C@@H](Cc3csc4ccccc34)C(=O)N[C@@H](CCC(N)=O)C(=O)N[C@@H](C)C(=O)N[C@@H](C)C(=O)N[C@@H](C)C(N)=O)NC(=O)[C@H](CC(N)=O)NC(=O)[C@H](Cc3ccccc3)NC(=O)[C@H](C)NC(=O)[C@H](C)NC(=O)[C@H](CC(=O)O)NC(=O)[C@H](CC(=O)O)NC1=O)NC(=O)[C@H](CC(C)(C)C)NC(=O)[C@H](CC(=O)O)NC2=O (stereo partly drawn) [I-874, Ac-PL3-Asp-Npg-B5-Asp-Asp-Ala-Ala-Phe-Asn-S8-3Thi-BztA-Gln-Ala-Ala] | – | – | 50 (≈ 104 µg/mL) | logD (CHI Log D procedure): 2.31 |
| CC(=O)N1CCC[C@]12CC=CCCCC1(CCCC=CCCCCCC[C@@](C)(C(=O)N[C@@H](Cc3ccsc3)C(=O)N[C@@H](Cc3csc4ccccc34)C(=O)N[C@@H](CCC(N)=O)C(=O)N[C@H](C)C(=O)N[C@H](C)C(=O)N[C@H](C)C(N)=O)NC(=O)[C@H](CC(N)=O)NC(=O)[C@H](Cc3ccccc3)NC(=O)[C@H](C)NC(=O)[C@H](C)NC(=O)[C@H](CC(=O)O)NC(=O)[C@H](CC(=O)O)NC1=O)NC(=O)[C@H](CC(C)(C)C)NC(=O)[C@H](CC(=O)O)NC2=O (stereo partly drawn) [I-876, Ac-PL3-Asp-Npg-B5-Asp-Asp-Ala-Ala-Phe-Asn-S8-3Thi-BztA-Gln-dAla-dAla] | – | – | 50 (≈ 104 µg/mL) | logD (CHI Log D procedure): 2.26 |
| CC(=O)N1CCC[C@]12CC=CCCCC1(CCCC=CCCCCCC[C@@](C)(C(=O)N[C@@H](Cc3ccsc3)C(=O)N[C@@H](Cc3csc4ccccc34)C(=O)N[C@@H](CCC(N)=O)C(=O)N[C@@H](C)C(=O)N[C@@H](C)C(=O)N[C@H](C)C(N)=O)NC(=O)[C@H](CC(N)=O)NC(=O)[C@H](Cc3ccccc3)NC(=O)[C@H](C)NC(=O)[C@H](C)NC(=O)[C@H](CC(=O)O)NC(=O)[C@H](CC(=O)O)NC1=O)NC(=O)[C@H](CC(C)(C)C)NC(=O)[C@H](CC(=O)O)NC2=O (stereo partly drawn) [I-877, Ac-PL3-Asp-Npg-B5-Asp-Asp-Ala-Ala-Phe-Asn-S8-3Thi-BztA-Gln-Ala-Ala] | – | – | 50 (≈ 104 µg/mL) | logD (CHI Log D procedure): 2.35 |
| COCCOCCC(=O)NCCCC[C@@H]1NC(=O)[C@H](C)NC(=O)[C@H](CC(=O)O)NC(=O)[C@H](CC(=O)O)NC(=O)C2(CCCC=CCCCOC(=O)N3CC[C@@](C(=O)N[C@@H](Cc4ccsc4)C(=O)N[C@@H](Cc4csc5ccccc45)C(=O)N[C@@H](CCC(N)=O)C(N)=O)(C3)NC(=O)[C@H](CC(N)=O)NC(=O)[C@H](Cc3ccccc3)NC1=O)CCCC=CC[C@]1(CCCN1C(C)=O)C(=O)N[C@@H](CC(=O)O)C(=O)N[C@@H](CC(C)(C)C)C(=O)N2 (stereo partly drawn) [I-892, Ac-PL3-Asp-Npg-B5-Asp-Asp-Ala-[mPEG2]Lys-Phe-Asn-PyrS2-3Thi-BztA-Gln-NH2] | – | – | 33 (≈ 69.5 µg/mL) | CHI Log D (CHI Log D procedure): 1.475 |

Source: patent US20240116985A1, “STAPLED PEPTIDES AND METHODS THEREOF” (priority 2020, published 2024)
